Data: patent US20240368104A1, “Novel Dialkoxynaphtho[2,3-C]Furan-1(3H)-One Derivatives and Pharmaceutical Composition For Preventing or Treating Respiratory Disease or SARS-COV-2 Infection Disease, Comprising Same” (priority 2021, published 2024)
Read-outs that look alike come from different tables or passages of the source.

How the values were obtained:
[1] = system: IL-4 secretion in RBL-2H3 cells; experiment: Inhibition of IL-4 secretion in RBL-2H3 cell line (A23187 induced, ELISA); type: cell-based; conditions: Rattus norvegicus
Method: The RBL-2H3 cell line was purchased from the American Type Culture Collection (ATCC #CRL-2256). The cells were diluted at a concentration of 1×10^6 cells/ml in RPMI medium containing 15% fetal bovine serum (FBS) and antibiotics (penicillin at 100 U/mL, streptomycin at 100 μg/mL), distributed at 200 μl/well in a 48 well plate, and cultured in a 37° C., 5% CO2 incubator for 24 hours. In 24 hours later, the cells were pre-treated one hour before with a test drug and AS1517499 (STAT6 inhibitor) as a control drug, and treated with 1 uM of A23187 for six hours to induce an immune response, after which a group not containing the drug was used as a control. In order to measure a secretion level of cytokine IL-4, the medium was collected from the well plate and centrifuged at 125×g for five minutes to remove a residue, and 100 μl of the medium was used to measure an amount of IL-4 secreted from the cells by using IL-4 enzyme-linked immunosorbent assay (ELISA, Komabiotech). A degree of inhibition of cell secretion by the drug was calculated using [Equation 1] below.
First of all, 288 kinds of materials were treated at a single concentration of 10 uM so as to select 60 kinds of materials which inhibit secretion of IL-4 by 75% or more (FIG. 19).
After that, a repeated experiment and a two-concentration (10, 3 uM) test were performed using the selected 60 kinds of materials so as to select the final eight kinds, and the IC50 value was calculated and shown in Table 3.

SARS-COV-2 = experiment: microbe, parasite or virus in culture; type: cell-based; parameters: SI (Selectivity Index, CC50/IC50): unit not given here; conditions: for SI (Selectivity Index, CC50/IC50): SARS-COV-2, values >50 assumed to be 50; for IC50: read-out: SARS-COV-2 inhibition (IC50)
[2] = system: IL-4 secretion in mouse splenocytes; experiment: Inhibition of IL-4 secretion in mouse splenocytes (Concanavalin A, ELISA); type: cell-based, Balb/c mice; conditions: for inhibition at 1 µM: Splenocyte, read-out: IL-4 Secretion inhibitory ability (%); for IL-4 pg/ml: Concanavalin A 5 μg/mL, 48 hours
Method: (§1) The isolated splenocytes were diluted at a concentration of 5×10^6 cells/mL in RPMI medium containing 10% fetal bovine serum (FBS) and antibiotics (penicillin at 100 U/mL, streptomycin at 100 μg/mL), distributed at 500 μl/well in a 24 well plate, and cultured in a 37° C., 5% CO2 incubator for 48 hours. When splenocytes were distributed, an immune reaction was induced by treating with 5 μg/mL of Concanavalin A, and at this time, the splenocytes were treated with the materials selected in Experimental Example 3 at a concentration of 1 uM. First, in order to measure Th2 cytokines, the medium was collected from the 24-well plate, and only the supernatant was separated through centrifugation at 800×g for five minutes, after which 100 μl of the supernatant per well was used in an enzyme-linked immunosorbent assay (ELISA, Komabiotech) experiment so as to measure a degree of secretion of Th2 cytokines IL-4 and IL-5. A degree of inhibition against secretion of cytokines by the test material was calculated using [Equation 2] below, and the measurement results are shown in Table 7.

in vitro = conditions: African green monkey
[3] = system: IL-5 secretion in mouse splenocytes; experiment: Inhibition of IL-5 secretion in mouse splenocytes (Concanavalin A, ELISA); type: cell-based, Balb/c mice; conditions: for inhibition at 1 µM: Splenocyte, read-out: IL-5 Secretion inhibitory ability (%); for IL-5 pg/ml: Concanavalin A 5 μg/mL, 48 hours
Method: as §1

[4] = system: SFTS virus (KADGH; NCCP43261); experiment: microbe, parasite or virus in culture; type: cell-based, severe fever with thrombocytopenia syndrome virus; conditions: Severe fever with thrombocytopenia syndrome virus, Vero, 24 h, read-out: SFTSV inhibition (IC50, μM)
[5] = system: Balb/c mouse asthma model; experiment: Balb/c mouse asthma model (ovalbumin), BALF IgE, IL-4, IL-5 and inflammatory cells; type: in vivo, Balb/c mice; conditions: Example 73 10 mg/kg oral, dexamethasone 1 mg/kg intraperitoneal
Method: In detail, five-week-old Balb/c mice were purchased and acclimated for one week, after which the mice were sensitized systemically by intraperitoneal injection with 0.1% ovalbumin (OVA 1 mg/mL, Al(OH)3 20 mg/mL) at 100 μl/mouse on days 0 and 14 from a week after the acclimation. From a week (day 21) after a final systemic sensitization, the compound of Example 73 was orally administered everyday at 10 mg/kg to mice for ten days, and dexamethasone was intraperitoneally administered at 1 mg/kg as a positive control group. In one hour later, 0.2% ovalbumin solution was sprayed with a nebulizer (PARIBoy SX, GmbH, Germany) so as to be inhaled for one hour. In five hours after the final sensitization (day 30), an autopsy was performed, and 1 mL of phosphate buffer solution was flowed through a tracheotomy to collect a bronchoalveolar lavage fluid (BALF). The collected BALF was centrifuged at 3000 rpm for ten minutes, and the supernatant was used to measure bioactive materials (IL-4, IL-5), and pellets were used to measure the number of inflammatory cells. In addition, an IgE concentration in the isolated BALF was measured using IgE enzyme-linked immunosorbent assay (ELISA, Komabiotech), and IL-4 and IL-5 were measured using their respective enzyme-linked immunosorbent assay (ELISA, IL-4: Enzo #ADI-900-043, IL-5: R&D system #M5000).
The results are shown in Table 8 and FIG. 22, and each secretion inhibitory activity was calculated in the same manner as in [Equation 2] of Experimental Example 4.
In addition, the BALF pellets were re-dissolved by adding 0.5 mL of phosphate buffer solution, and then 0.1 mL for each thereof was added to a 96-well plate and centrifuged at 800 rpm for five minutes to attach cells to the bottom (three wells per sample). Then, the cells were stained with Diff Quik staining solution (Sysmex) and the number of cells was measured with […].
The results were shown in FIG. 21, the SPSS program was used for statistical processing, the Levene test was performed for equal-variance test, and the significance test was performed through one-way ANOVA.

[6] = system: IL-5 expression in Th2 cells; experiment: Inhibition of IL-5 expression in Th2 cells (ELISA); type: cell-based, Balb/C mice; conditions: Splenocyte; Th2 cells from mouse splenocytes, compound 1 nM; read-out: Inhibitory ability against IL-5 expression (%)
Method: Specifically, after spleens were collected from Balb/C mice, CD4+ T cells were isolated therefrom and were seeded at 1-2×10^6 per well into a 48-well tissue culture plate coated with anti-CD3 (5 ug/ml) and anti-CD28 (1 ug/ml). At this time, the culture medium was incubated with IL-2 (20 ng/ml), IL-4 (100 ng/ml), anti-IFNγ (10 ug/ml), anti-IL12 (10 ug/ml), and a derivative of 1 nM for two days, transferred to a new tissue culture plate, and further cultured for three days to induce differentiation into Th2 cells. After replacing with a new medium containing anti-IFNγ (10 ug/ml), anti-IL12 (10 ug/ml) and a derivative of 1 nM, polarization of Th2 cells was induced using PMA and A23187. After two days of culture, the cells were centrifuged and the culture medium was taken to perform IL-5 ELISA. IL-5 ELISA was performed according to the test method of the kit manufacturer.

[7] = RBL-2H3, read-out: IL-4 secretion inhibition IC50 (μM)
[8] = mouse splenocytes, compound 1 μM
[9] = Severe acute respiratory syndrome coronavirus 2, Vero cells, 24 hours infection

Structure (SMILES)	SI (Selectivity Index, CC50/IC50) (SARS-COV-2)	CC50 (in vitro)	IC50 (SARS-COV-2; [9])	inhibition at 0.001 µM [6]	other results
COc1cc2cc3c(c(-c4cnc(N(C)C5CCCC5)nc4)c2cc1OC)C(=O)OC3.Cl [Example 84, 9-(2-(cyclopentyl(methyl)amino)pyrimidin-5-yl)-6,7-dimethoxynaphtho[2,3-c]furan-1(3H)-one hydrochloride]	237.53	> 50 µM			IC50 [1, 7]: 5.23 µM; IC50 (SARS-COV-2; Severe acute respiratory syndrome coronavirus 2, Vero, 24 h): 0.21 µM; inhibition at 1 µM ([2]; Mus musculus): 99.7%; IL-4 pg/ml [2, 8]: 1.1 pg/mL; inhibition at 1 µM ([3]; Mus musculus): 88%; IL-5 pg/ml [3, 8]: 11.2 pg/mL
CCCCN(C)c1ncc(-c2c3c(cc4cc(OC)c(OC)cc24)COC3=O)cn1.Cl [Example 76, 9-(2-(butyl(methyl)amino)pyrimidin-5-yl)-6,7-dimethoxynaphtho[2,3-c]furan-1(3H)-one hydrochloride]	270.89				IC50 [1, 7]: 4.05 µM; inhibition at 1 µM ([2]; Mus musculus): 99.6%; IL-4 pg/ml [2, 8]: 1.2 pg/mL; inhibition at 1 µM ([3]; Mus musculus): 85.6%; IL-5 pg/ml [3, 8]: 13.4 pg/mL
NC(=O)c1nc(F)c[nH]c1=O [Favipiravir]					IC50 [4]: 278 µM
COc1cc2cc3c(c(-c4cnc(N5CCSCC5)nc4)c2cc1OC)C(=O)OC3 [Example 63, 6,7-dimethoxy-9-(2-thiomorpholinopyrimidin-5-yl)naphtho[2,3-c]furan-1(3H)-one]	23.56	> 50 µM	2.12 µM		IC50 ([1]; RBL-2H3 cells, 1 uM A23187, read-out: IL-4 secretion inhibition IC50): 4.23 µM; inhibition at 1 µM [2, 8]: 99.6%; IL-4 pg/ml [2, 8]: 1.3 pg/mL; inhibition at 1 µM [3, 8]: 81.6%; IL-5 pg/ml [3, 8]: 17.2 pg/mL
C[C@@H]1C[C@H]2[C@@H]3CCC4=CC(=O)C=C[C@]4(C)[C@@]3(F)[C@@H](O)C[C@]2(C)[C@@]1(O)C(=O)CO [Dexamethasone, dexamethasone, reference compound]					BALF IL-4 Secretion inhibitory ability % [5]: (102.7%); BALF IL-5 Secretion inhibitory ability % [5]: (50.0%); BALF IgE Secretion inhibitory ability % [5]: (93.0%); BALF IL-4 pg/ml ([5]; Mean ± S.D., n = 5, ten days): 32.9 ± 4.534 ^## pg/ml; BALF IL-5 pg/ml ([5]; Mean ± S.D., n = 5, ten days): 15.6 ± 8.07 pg/mL; BALF IgE ng/ml ([5]; Mean ± S.D., n = 5, ten days): 1.3 ± 0.536 ^## ng/ml
COc1cc2cc3c(c(-c4cnc(N5CCC[C@H]5C(=O)NCc5ccc(C)o5)nc4)c2cc1OC)C(=O)OC3 [Example 41, (S)-1-(5-(6,7-dimethoxy-3-oxo-1,3-dihydronaphtho[2,3-c]furan-4-yl)pyrimidin-2-yl)-N-((5-methylfuran-2-yl)methyl)pyrrolidin-2-carboxamide]	2.41	> 50 µM	15.2 µM	66%	
COc1cc2cc3c(c(-c4ccc5nccnc5c4)c2cc1OC)C(=O)OC3 [Example 40, 6,7-dimethoxy-9-(quinoxalin-6-yl)naphtho[2,3-c]furan-1(3H)-one]	76.71	> 50 µM	0.65 µM	65.1%	
COc1cc2cc3c(c(-c4cnc(N5CCC[C@H]5C(=O)N5C[C@@H](C)O[C@@H](C)C5)nc4)c2cc1OC)C(=O)OC3 [Example 24, 9-(2-((S)-2-((2S,6R)-2,6-dimethylmorpholin-4-carbonyl)pyrrolidin-1-yl)pyrimidin-5-yl)-6,7-dimethoxynaphtho[2,3-c]furan-1(3H)-one]	1.00	> 50 µM	> 50 µM	72.3%	
COc1cc2cc3c(c(-c4cnc(NCc5ccc(C)o5)nc4)c2cc1OC)C(=O)OC3 [Example 50, 6,7-dimethoxy-9-(2-(((5-methylfuran-2-yl)methyl)amino)pyrimidin-5-yl)naphtho[2,3-c]furan-1(3H)-one]	5.27	> 50 µM	9.49 µM	61.5%	
COc1cc2cc3c(c(-c4cnc(N[C@H]5CC[C@H](O)CC5)nc4)c2cc1OC)C(=O)OC3 [Example 47, 9-(2-(((1r,4r)-4-hydroxycyclohexyl)amino)pyrimidin-5-yl)-6,7-dimethoxynaptho[2,3-c]furan-1(3H)-one]	1.00	> 50 µM	> 50 µM	61%	
COCCN(C)c1ncc(-c2c3c(cc4cc(OC)c(OC)cc24)COC3=O)cn1 [Example 18, 6,7-dimethoxy-9-(2-((2-methoxyethyl)(methyl)amino)pyrimidin-5-yl)naphtho[2,3-c]furan-1(3H)-one]	99.07	> 50 µM	0.5 µM	72.3%	
CCCOCCNc1ncc(-c2c3c(cc4cc(OC)c(OC)cc24)COC3=O)cn1 [Example 37, 6,7-dimethoxy-9-(2-((2-propoxyethyl)amino)pyrimidin-5-yl)naphtho[2,3-c]furan-1(3H)-one]	1.00	> 50 µM	> 50 µM	56%	
CCC(C)Oc1ncc(-c2c3c(cc4cc(OC)c(OC)cc24)COC3=O)cn1 (stereo not shown) [Example 25, 9-(2-(sec-butoxy)pyrimidin-5-yl)-6,7-dimethoxynaphtho[2,3-c]furan-1(3H)-one]	1.00	> 50 µM	> 50 µM	56.8%	
